Data on eleven molecules can be found in US5246935A, “Piperazinyl derivatives and methods of treating central nervous system ailments relating to the 5-HT2 receptor system” (Novo Nordisk A/S, priority 1990, dated 1993).

Structures can show the parent of a compound that is named as a salt.

By IC50 is commonly meant the point on the concentration scale where inhibition reaches its midpoint. By ED50 is commonly meant the dose at which the effect has come halfway, by size or by number of responders. Higher therefore signals weaker potency.

Experiment [1] has as its target T1, 5HT1A receptor (Rattus norvegicus, UniProt P19327).
T1 sequence (P19327 1-422): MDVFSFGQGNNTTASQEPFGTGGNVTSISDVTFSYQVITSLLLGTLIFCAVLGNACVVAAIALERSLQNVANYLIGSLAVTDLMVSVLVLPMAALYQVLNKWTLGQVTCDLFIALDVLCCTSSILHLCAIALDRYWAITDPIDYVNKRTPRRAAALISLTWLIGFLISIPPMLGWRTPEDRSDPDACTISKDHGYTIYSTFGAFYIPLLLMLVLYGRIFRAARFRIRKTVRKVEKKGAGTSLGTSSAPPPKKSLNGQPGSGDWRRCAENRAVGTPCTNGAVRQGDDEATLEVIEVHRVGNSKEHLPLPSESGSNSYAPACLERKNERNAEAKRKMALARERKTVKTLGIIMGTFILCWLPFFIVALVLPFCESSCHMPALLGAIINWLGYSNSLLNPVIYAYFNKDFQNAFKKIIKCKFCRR
The experiment can be described thus: In-Vitro inhibition of 5HT1A receptor binding (3H-8-OH-DPAT). The note with it: 3H-8-OH-DPAT 1 nM, rat frontal cortex and hippocampus, 37° C., 10 min. Also on record: species or system rat (male Wistar). The procedure:
In-Vitro inhibition of 5HT1A receptor binding
Radioactive-labelled ligand ^3 H-80H-DPAT is incubated with isolated cell-membrane fragments at 37° C. for a given period of time. Following completed incubation, the incubate is filtered through GF/F filters which are rinsed after filtration to remove unspecifically adhered radioactivity. As opposed to low-molecular compounds, membrane fragments are not rinsed through the filters, the radioactivity bound to the filters indicates the amount of ligand bound specifically as well as nonspecifically to the membranes.
Male Wistar rats, 150-200 g are decapitated, and frontal cortex (approx. 200 mg) and hippocampus (approx. 70 mg) homogenized in 2×10 ml ice-cold DPAT buffer for 20 sec. applying polytron kinematica setting 6. Centrifuged at 20,000 rpm for 10 min. at 4° C. The pellet is transferred to 2×10 ml ice-cold DPAT buffer, homogenized for 20 sec. and preincubated for 10 min. at 37° C. Centrifuged at 20,000 rpm for 10 min. at 4° C. Final pellet added to 125×vol. of same buffer with 10 μM paragylin added (ex. 270 mg tissue in 33.75 ml DPAT buffer containing paragylin). Prepared fresh every day. Use within 30 minutes.
1,250 μl tissue 25 μl ^3 H-80H-DPAT (1 nM) 25 μl test substance/H2 O/blind serotonin (10 μM)
Incubation at 37° C. for 10 min.--at 10 sec. intervals. To the tubes is added 10 ml ice-cold 0.9% NaCl. Filtration through GF/F filters (use gloves). This procedure is repeated. Filters are placed in counting vials and 4 ml optiflow added (prepare in fume cupboard, use gloves). Counted at window 0-19 of the beta- counter (Pachard). Note that receptor box and lid are rinsed thoroughly in H2 O after use to avoid contamination. Further the analytical site is cleaned carefully every day.
Dissolved in H2 O, EtOH, MeOH or DMSO and further diluted in H2 O. The DPAT binding will stand concentrations of up to approx. 5% of these solvents without affecting the binding. Most stock solutions are stable at 4° C. Attention should, however, be paid to any precipitation, change in colour etc. Test-substance dilutions are always prepared fresh every day. When weighing out test substances, it is attempted to weigh out approx. 1 mg of substance. Less than 0.8 mg must never be weighed out and only infrequently more than 2 mg (for economy reasons) dependent, however on conc./assay.

The target in experiment [2] is T2, 5HT2 receptor (Rattus norvegicus, UniProt P14842).
T2 construct: incubated with isolated cell-membrane fragments; from tissue; host or cells: frontal cortex of male Wistar rats (membranes)
T2 sequence (P14842 whole entry, the tested form may be a part): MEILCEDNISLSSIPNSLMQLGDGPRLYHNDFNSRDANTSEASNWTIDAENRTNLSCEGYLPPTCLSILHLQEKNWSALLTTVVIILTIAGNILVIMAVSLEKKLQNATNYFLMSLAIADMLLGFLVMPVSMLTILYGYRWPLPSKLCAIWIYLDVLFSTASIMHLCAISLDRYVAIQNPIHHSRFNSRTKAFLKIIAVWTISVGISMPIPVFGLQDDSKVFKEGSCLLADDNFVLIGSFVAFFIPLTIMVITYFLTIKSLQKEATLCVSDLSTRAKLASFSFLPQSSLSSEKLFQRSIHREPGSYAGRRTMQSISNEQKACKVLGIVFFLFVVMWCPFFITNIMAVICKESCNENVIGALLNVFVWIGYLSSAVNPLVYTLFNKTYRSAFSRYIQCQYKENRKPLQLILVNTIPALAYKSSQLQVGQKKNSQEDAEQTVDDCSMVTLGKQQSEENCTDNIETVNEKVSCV
Put plainly: In Vitro Inhibition of 5HT2-Receptor Binding (3H-Ketanserine). Also on record: species or system rat (male Wistar). The note with it: 3H-Ketanserine 0.4 nM, rat frontal cortex, 37° C., 15 min. The procedure:
In Vitro Inhibition of 5HT2 -Receptor Binding
Radioactive-labelled ligand ^3 H-Ketanserine is incubated with isolated cell-membrane fragments at 37° C. for a given period of time. Following completed incubation, the incubate is filtered through GF/B filters which are rinsed after filtration to remove unspecifically adhered radioactivity. As opposed to low-molecular compounds, membrane fragments are not rinsed through the filters, the radioactivity bound to the filters indicates the amount of ligand bound specifically as well as non-specifically to the membranes.
The preparation is made in ice bath. Polytron kinematica is rinsed with milli-Q-H2 O before and after use. Male Wistar rats, 150-200 g are decapitated. Frontal cortex is removed quickly and weighed (approx. 200 mg). Frontal cortex is added to centrifuging vial containing 10 ml ice-cold D2 buffer. Homogenization applying polytron kinematica (homogenizer) setting 6 for 20 sec. The homogenizer is rinsed with 10 ml D2 buffer in another centrifuging vial. The 10 ml rinsing buffer is added to the tissue vial. Centrifuged at 18,000 rpm for 10 min. at 4° C. Final pellet is transferred to 125×vol. of same buffer. (Ex. 200 mg in 25 ml D2 buffer). Can be stored for approx. 30 min. at 0° C.
25 μl ^3 H-Ketanserine (0.4 nM)
25 μl test substance/H2 O/blind cyproheptadine (2 μM)
Incubation for 15 min. at 37° C.
10 ml ice-cold 0.9% NaCl is added to the tubes. Filtration is performed through GF/B filters (use gloves). This procedure is repeated. Filters are placed in counting vials, and 4 ml opti- flour is added (prepare in fume cupboard, use gloves). Counting at window 0-19 of the beta-counter (Pachard). Note that receptor box and lid are rinsed thoroughly in H2 O after use to avoid contamination. Further the analytical site is cleaned carefully every day.
Dissolved in H2 O, EtOH, MeOH or DMSO and further diluted in H2 O. The 5HT2 binding will stand concentrations of up to approx. 5% of these solvents without affecting the binding. Most stock solutions are stable at 4° C. Attention should, however, be paid to any precipitation, change in colour etc. Test-substance dilutions are always made fresh every day. When weighing out test substance, it is attempted to weigh out approx. 1 mg of substance. Less than 0.8 mg must never be weighed out and only infrequently more than 2 mg (for economy reasons) dependent, however, on conc./assay.

The target of experiment [3] is Alpha1 receptor. Put plainly: In-Vitro Inhibition of Alpha1-Receptor Binding (3H-Prazosin). More on the design: species or system rat (male Wistar). The note with it: 3H-Prazosin 0.5 nM, rat cortex, 25° C., 30 min; read-out: Receptor binding IC50 α1. The procedure: In-Vitro Inhibition of Alpha1 -Receptor Binding, Radioactive-labelled ligand ^3 H-Prazosin is incubated with isolated cell-membrane fragments at 25° C. for a given period of time. Following completed incubation, the incubate is filtered through GF/B filters, which are rinsed following filtration to remove unspecifically adhered radioactivity. As opposed to low- molecular compounds, membrane fragments are not rinsed through the filters, the radioactivity bound to the filters indicates the amount of ligand bound specifically as well as nonspecifically to the membranes. The procedure is performed in ice bath. Polytron kinematica is rinsed with milli-Q-H2 O before and after use. Male Wistar rats, 150-200 g are decapitated, cortex is removed quickly and weighed (approx. 500 mg). Cortex is transferred to a centrifuging vial containing 10 ml ice-cold D2 buffer. Homogenization applying polytron kinematica (homogenizer) setting 6 for 20 sec. The homogenizer is rinsed with 10 ml D2 buffer in another centrifuging vial. The 10 ml rinsing buffer is added to the tissue vial. Centrifugation at 18,000 rpm for 12 min. at 4° C. This is repeated once. Final pellet is added to 400×vol. of same buffer. (Ex. 500 mg cortex in 200 ml D2 buffer). Can be stored for 30 min. at 0° C. 2,000 μl tissue 25 μl ^3 H-Prazosin (0.5 nM) 25 μl test substance/H2 O/blind Phentolamine (10 μM) Incubation for 30 min. at 25° C. 10 ml of ice-cold 0.9% NaCl is added to the tubes and filtered through GF/B filters (use gloves). This procedure is repeated. Filters are placed in counting vials and 4 ml opti-flour is added (perform in fume cupboard, use gloves). Counting is performed at window 0-19 of the betacounter (Pachard). […] Further, the analytical site is cleaned carefully every day after use. Dissolved in H2 O, EtOH, MeOH or DMSO and further diluted in H2 O. […] Most stock solutions are stable at 4° C. Attention should, however, be paid to any precipitation, change in colour etc. Test-substance dilutions are always prepared fresh every day. When weighing out test substances, it is attempted to weigh out approx. 1 mg of substance. Less than 0.8 mg must never be weighed out and only infrequently more than 2 mg (for economy reasons) dependent, however, on conc./ass.

Experiment [4] concerns acetic acid-induced writhings in mice. Put plainly: Antagonism of Acetic Acid-Induced Writhings In Mice. The experiment is classed as in vivo, mouse (NMRI). The note with it: Mus musculus, sc; s.c. 30 min before acetic acid 0.5 per cent i.p.; 50 per cent protection. The procedure: Antagonism of Acetic Acid-Induced Writhings In Mice
In mice i.p. injection of acetic acid induces a writhing syndrome which is antagonized by analgesics (Siegmund et al., 1957; Eckhardt et al., 1957).
Acetic acid 0.5 per cent is injected i.p. (0.15 ml/10 g body weight) to 6 mice (NMRI, either sex weighing 20-25 g) pretreated with physiological saline (controls) and to 6 mice pretreated with test substance. In the controls acetic acid induces a syndrome characterized by contraction of abdomen, turning of trunk and extension of hind limbs. Saline and test substances are administered s.c. 30 min. before acetic acid. The number of writhings is counted 5-15 min. after injection of acetic acid.
The activity is expressed as per cent protection: [formula]
The effect of active substances is evaluated by a dose response curve, log dose on the abscissa, and per cent protection on the ordinate. The potency is expressed as the dose (ED50 in mg/kg giving 50 per cent protection against writhings.
This test is used as a screening test for analgesics. Additional results from other screening tests are required to exclude active anti-writhing substances without analgesic effect.

Experiment [5] relates to anxiety, depression. The note with it: clinical; cited from earlier work.
Experiment [6] has as its system psychosis. The note with it: in vivo; cited from earlier work.
In experiment [7] the test system is 5HT2, alpha1-adrenergic and dopaminergic receptors. The note with it: cited from earlier work.
In experiment [8] the test system is 5-HT2 receptor. The note with it: cited from earlier work.
Experiment [9] concerns ischemic neuronal damage in the gerbil. The note with it: cited from earlier work.
The subject of experiment [10] is 5-HT1A receptors. The note with it: cited from earlier work.
For experiment [11], the system named is dopamine D2 receptors. The note with it: cited from earlier work.

For the molecule `COc1cc(NC(=S)OCCCN2CCN(c3ccccc3Cl)CC2)cc(OC)c1OC` [Example 24, 4-(2-Chlorophenyl)-1-(3-[3,4,5-trimethoxyphenyl(thiocarbamoyl)oxy]propyl)piperazine, hydrochloride], the values for the 50% inhibitory concentration (IC50) in experiment [1], in experiment [2] and in experiment [3] were 61 nM, 49 nM and 7.5 nM, respectively.

In experiment [4], `CCOC(=O)C1(c2ccccc2)CCN(C)CC1` [Pethidine, reference compound] came in with an ED50 of 9.3 mg/kg.

On to `Cl.O=C(Nc1ccc2c(c1)OCO2)OCCCN1CCN(c2cccc(Cl)c2)CC1` [Example 15, 4-(3-Chlorophenyl)-1-[3-(3,4-methylenedioxyphenylcarbamoyloxy)propyl]piperazine, hydrochloride], for which the 50% effect level in [4] (ED50) was put at a dose of 5.6 mg/kg.

Molecule `Cl.O=C(Nc1ccc2c(c1)OCCO2)OCCCN1CCN(c2cccc(Cl)c2)CC1` [Example 18, 4-(3-Chlorophenyl)-1-[3-(3,4-ethylenedioxyphenylcarbamoyloxy)propyl]piperazine, hydrochloride] showed an ED50 in experiment [4] of 7 mg/kg.

As to `Cc1nc2sccn2c(=O)c1CCN1CCC(=C(c2ccc(F)cc2)c2ccc(F)cc2)CC1` [Ritanserin], the “anxiolytic / antidepressant efficacy (in words)” value in [5] is given as “demonstrate clinical efficacy as anxiolytic-antidepressant agents”.

As to `CN1CCN(C2=Nc3cc(Cl)ccc3Nc3ccccc32)CC1` [clozapine], in [6], the “antipsychotic properties (in words)” value is recorded as “unprecedented antipsychotic potential”. The “binding to 5HT2, alpha1-adrenergic and dopaminergic receptors (in words)” value in experiment [7] is “nonselectively binds”.

`O=C(c1ccc(F)cc1)C1CCN(CCn2c(=O)[nH]c3ccccc3c2=O)CC1` [ketanserin]: in experiment [8], the “affinity for / antagonism of 5-HT2 receptor (in words)” value is reported as “high affinity”.

Turning to `CCCN(CCC)C1CCc2cccc(O)c2C1` (centres unmarked) [Example 8-OH-DPAT, 8-hydroxy-2-(di-n-propylamino)tetralin], the “protective effect on ischemic neuronal damage in the gerbil (in words)” value in experiment [9] is given as “exhibit a protective effect on ischemic neuronal damage”. In experiment [10], the “binding affinity / selectivity for 5-HT1A receptors (in words)” value is given as “high affinity”.

On to `CCN(CC)CCOC(=O)C(Cc1cccc2ccccc12)CC1CCCO1` (centres unmarked) [naftidrofuryl], for which the “protective effect on ischemic neuronal damage in the gerbil (in words)” value in [9] was “exhibit a protective effect on ischemic neuronal damage”.

On to `Cc1nc2n(c(=O)c1CCN1CCC(c3noc4cc(F)ccc34)CC1)CCCC2` [Risperidone], for which, in [6], the “antipsychotic properties (in words)” value was “antipsychotic properties”. The “antagonism of dopamine D2 receptors (in words)” value in experiment [11] is given as “potent antagonist”.

`O=C1CC2(CCCC2)CC(=O)N1CCCCN1CCN(c2ncccn2)CC1` [buspirone]: the “anxiolytic / antidepressant efficacy (in words)” value in experiment [5] is “effective anxiolytic agent”. Besides, the “binding affinity / selectivity for 5-HT1A receptors (in words)” value in [10] was “selectivity for 5-HT1A receptors”.
